Read-outs that look alike come from different tables or passages of the source.
What was measured:
[1] = target: anionic phospholipid membranes; conditions: cited from earlier work
apoptotic hepatocytes = type: in vivo; conditions: data not shown
Procedure: All animals were killed 2 hr after administration of antibody followed by organ removal. Heart, lung and liver were collected.
Formalin fixed paraffin-embedded tissues were sectioned (5 μm) for staining with Hematoxylin/Eosin or other techniques.
Endogenous peroxidase activity was blocked by incubation with 3% H2O2.
After washing with PBS, staining was developed with 3,3-diaminobenzidine tetrahydrochloride (DAB), and counterstained with Hematoxylin.
Liver sections from different lobes were used for detection of stained apoptotic cells compared to normal cells.
The percentage of apoptotic cells in the fields was estimated by evaluating parallel sections stained with Hematoxylin/Eosin. Analysis was performed blindly, since the pathologist performing the histological evaluation was unaware of the assignment of mice to the treatment or control group.

[2] = rabbits, intravenous injection; cited from earlier work
[3] = test system: clotting induced by negatively charged phospholipids in normal plasma
Procedure: The ability of NST300 compounds to inhibit coagulaton catalyzed by negatively—charged phospholipids was evaluated in a standard coagulation test of the Russell viper venom (RVV) assay. The RVV reagent directly activates factor x present in the plasma, thus promoting prothrombinase complex formation. This reagent is widely used as a standard phospholipid responsive clotting test. (Thiagarajan et al., Blood, 1986; 869-874).
The RVV reagent kit, containing RVV and negatively charged phospholipids, from Gradipore, Australia was used. The reactions were started by mixing 100 μl of RVV reagent, and 100 μl of quality control plasma collected from normal individuals (commercially available from Instrumentation Laboratory, Italy). Clotting time was determined as the time-point beyond which the continuously mixed reaction ingredients in the test tube, could no longer be aspirated with a pasteur pipette. Clotting time was measured independently by two separate researchers.

[4] = test system: procoagulant activity of apoptotic HeLa S3 cells; conditions: 0.5 μM; for effect on procoagulant effect of apoptotic cells: FIG. 5a
Procedure: In the standard APTT test, clot formation is triggered by recalcification of plasma and addition of cephalin, i.e. negatively-charged phospholipids. Time until clot formation was measured as described in Example 3. […] In the modified APTT test, used in the present study, the addition of negatively-charged phospholipids (cephalin) was replaced by addition of apoptotic cells.
The cultured medium was discarded, and cells that were loosely attached to the growing surface, were collected in PBS, as described in Example 2B. These cells were washed and resuspended in TBS, and were regarded as advanced apoptotic cells. Equal numbers of apoptotic or control non-treated cells (10^5) in a volume of 100 μl, were mixed with 100 μl of 25 mM of CaCl2 and the clotting time was measured. […] Inhibition of their procoagulant activity by NST300 compounds was tested following pre-incubation of apoptotic cells with the different NST300 compounds.
Pre-incubation of equal numbers of apoptotic or control non-treated cells (10^5) with NST300 compounds was for 10 minutes at room temperature in a final volume of 100 μl. The compounds were used at concentration of 0.5 μM. The results can be seen in FIG. 5a.

[5] = test system: Human Umbilical Vein Endothelial Cells (HUVEC); conditions: 500 ng of compound, 40 minutes
Procedure: HUVEC (CC-2517, obtained from Clonetics, Walkersville, Md.) were grown on tissue culture flasks in Endothelial cell medium (EGM-2 Bulletkit, CC 3162, Clonetics). Mid-confluent cultures were harvested using Trypsine/EDTA solution (CC-5012, Clonetics). The cells were rinsed twice with PBS containing 2% BSA and kept on ice. Samples of 10^6 cells were tested for binding.
The reactions were incubated at room temperature for 40 minutes and then 400 μl of TBS-BSA were added and cells were collected by centrifugation at 3000×g for 3 minutes. Cells were washed in 1 ml of TBS-BSA and centrifuged as before and then suspended in 100 μl of TBS-BSA containing streptavidin conjugated to flourescein (FITC) for detection of the bound biotinylated compound. […] Thereafter, 400 μl of TBS-BSA were added and cells were centrifuged and washed again with 1 ml of TBS-BSA as before and then resuspended in 400 μl of TSS and taken for FACS analysis.
The FACS analysis was performed on Beckton-Dickinson cell sorter, using lysis II software. Excitation was at 488 nm and emission for FITC detection was a 535 nm.
A dot plot analysis was done for each treatment.

[6] = test system: HeLa S3 cells undergoing dopamine (DA)-induced apoptosis
Procedure: Said compounds were each dissolved in TBS (Tris Buffered Saline; 10 mM Tris PH 8.0; 150 mM NaCl), at a stock concentration of 10 mM.
HeLa S3 cells (ATCC CCL-2.2) were cultured on a glass chamber slide (Nunc) on a culture area of […]. Chamber slides were pre-coated with 1% gelatin (Sigma) Cells were seeded at a density of 8×10^4 cells/chamber, in a volume of 300 μl of culture medium [Dulbecco's Modified Eagle's Medium (DMEM) supplemented with 2 mM of L-Glutamine; 100 units/ml of Penicilin; 100 μg/ml of Streptomycin; 12.5 units/ml of Nystatin and 10% of Fetal Calf Serum (FCS)]. Following 24 hours of incubation the cells were treated with an apoptotic trigger [i.e. dopamine (DA), which is a well characterized model of apoptosis (Lou et al., J. Biol. Chem. 1998; 273:3756-3764)].
For the DA treatment, the culture medium was replaced by a low serum containing medium (2% FCS), with 500 μM of dopamine (from RBI, Mass., USA) for 18 hours.
The evaluation was performed by staining with Hoechst 33342 dye (Molecular probes). This blue fluorescent dye is rapidly permeable into cells and stains DNA. Hoechst 33342 was added to growing cultures at a concentration of 1 μg/ml and 20 minutes later, the cells were visualized under UV light microscopy. The relative number of apoptotic cells with condensed or fragmented chromatin was then evaluated and compared with non-apoptotic cells which characteristically show a pale and diffuse staining. Photomicrographs were taken for documentation. […] This method was used to evaluate the level of apoptosis in cultured cells prior to binding to the NST300 compounds.
Apoptotic, as well as control untreated cells were grown as specified above and washed twice with TBS. The slides were then incubated with the NST300 compound at concentrations of 250-750 nM for 60 minutes, in a total volume of 100 μl. Slides were then dipped into a Couplin Jar containing 50 ml of TBS, and then incubated with 50 ng/ml of a sterptavidin reagent labeled with FITC (Fluorescein Isothiocyanate Conjugated, from Jackson Immunolaboratory U.S.A.). […] The slides were then washed with TBS as above and were then mounted with Fluoroguard antifade reagent (from Biorad Calif., USA).
The binding was then evaluated with a fluorescent microscope (IX70; Olympus), using a NIBA filter (Narrow Interference Blue A from Olympus).

[7] = test system: HeLa cells undergoing dopamine-induced apoptosis; conditions: 750 nM
Procedure: HeLa cells were plated on tissue culture plates at a density of 3×10^6 cells/10 cm dish, and grown in a DMEM medium containing 10% FCS, as described in A. The cells were then incubated at 37° C. overnight, and then the medium was replaced with a medium containing 2% FCS and 500 μM of dopamine. 18 hours later, the medium was aspirated and discarded, and 10 ml of Phosphate Buffered Saline pH 7.4 (PBS) were added to the culture dish. The cells which were detached from the culture dish into the PBS were collected. These cells represent advanced apoptotic cells. The remaining cells which were attached to the culture dish were trypsinized by the addition of 2 ml of trypsin for 2 minutes at 37° C., followed by the addition of 10 ml of a medium containing 10% of FCS. The cells were then washed with PBS containing 2% Bovine Serum Albumin (BSA), and resuspended in TBS containing 2% BSA (TBS-BSA). These cells were regarded as early apoptotic cells. […] Only non-treated cells that were attached to the culture dish were used as control cells for the FACS analysis.
A set of 3 different cell types was taken:
The incubation with the NST300 compounds or control compound was performed in a final volume of 100 μl TBS-BSA, 5 μg/ml of propidium iodide (PI) and 750 nM of the tested compound or the control compound.
PI is a red fluorescent dye that stains DNA. […] Only cells that are in advanced apoptotic stages, or cells that have already died by apoptosis or necrosis will be permeable to PI and will be stained with the dye. […] The cells were then washed in 500 μl of cold TBS-BSA and centrifugated as before. The cells were then suspended in 100 μl of TBS-BSA containing streptavidin conjugated to fluorescein (FITC). […] Thereafter, the cells were washed three times in TBS-BSA and were taken for FACS analysis.
The FACS analysis was performed on a Beckton-Dickinson cell sorter, using lysis II software. Excitation was at 488 nm and the emission or FITC detection was at 535 nm and for PI detection at 585 nm.

| Substance | Kd [1] [nM] | staining pattern when exogenously added to the apoptotic cells (apoptotic hepatocytes) | clearance within 5 minutes [2] [%] | anti-coagulant effect ([3]; RVV test, FIG. 4) | effect on procoagulant effect of apoptotic cells [4] | effect on procoagulant effect of apoptotic cells ([4]; listed as NST 301-C) | cells FITC positive [5] [%] | staining of DA-induced apoptotic HeLa cells ([6]; 250-750 nM compound, streptavidin-FITC, fluorescent microscopy) | increase of clotting time by a factor as compared to control ([3]; 0.5-50 μM, control clotting time 40 seconds) | increase of clotting time by a factor ([4]; apoptotic cells) | detection of early apoptotic cells ([7]; FIG. 3c) | early apoptotic cells double stained also with PI ([7]; early apoptotic cells) [%] | binding intensity: ratio of FITC mean value of apoptotic cells to that of control cells ([7]; early apoptotic cells, FIG. 3b) [fold] | total FITC/total PI ratio ([7]; advanced apoptotic cells) | total FITC/total PI ratio ([7]; early apoptotic cells) | staining of advanced apoptotic cells ([6]; 750 nM, FIG. 2c) | staining of cells in early apoptotic stages ([6]; 750 nM, FIG. 2c) | staining of control non-treated HeLa cells ([6]; 750 nM, fluorescent microscopy) |
| --- | --- | --- | --- | --- | --- | --- | --- | --- | --- | --- | --- | --- | --- | --- | --- | --- | --- | --- |
| Annexin V: 320 amino acid protein of the annexin family, Ca2+-dependent binding to anionic phospholipid membranes | 0.01 to 1 | same pattern of staining | 90 |  |  |  |  |  |  |  |  |  |  |  |  |  |  |  |
| GGGKKKKKRFSFKKSFKLSGFSFKKNKKK (SEQUENCE ID NO. 3) (Biotin)-OH [NST301-C, reference compound] |  |  |  | Significant, though moderate effect | mild effect | very modest effect | 7 | did not show any significant binding |  |  |  |  |  |  |  |  |  |  |
| Myristate-GGGKKKKKRFSFKKSFKLSGFSFKKNKKK (SEQUENCE ID NO. 1)-(biotin) [NST301] |  |  |  |  | fully reversing |  |  |  | 2.6 | 2 | potent detector | 43 | 4 | 1.2 | 2.2 | intense labeling | light, peripheral staining | few of them were stained, and very faintly |

Reference: patent publication US6602852B1, “Basic peptides and pharmaceutical compositions containing same” (NST NeuroSurvival Technologies, Ltd., priority 1998, dated 2003)
